ED50 data for 6 molecules are collected here from US4024139A, “2,3,4,4A-Tetrahydro-10H-1,2-oxazino[3,2-b](1,3)benzoxazin-10-ones” (Carter-Wallace, Inc., priority 1972, dated 1977).

A value given as a limit tells only on which side of the number the result lay.

The subject of this test is hind paw edema induced by carrageenin in the rat. Put plainly: hind paw edema induced by carrageenin in the rat (anti-inflammatory activity, oral). Type of test: in vivo, rat (male, Sprague-Dawley). Conditions: oral intubation 1 h before carrageenin, foot volume 3 h later, ED50 = dose in which edema formation is inhibited by 25 percent or more in 50 percent of the rats vs. mean of controls. Here is the method: The procedure described below (Winters et al, Proc. Soc., Exp. Biol. Med., 111, 544, 1962) was used to establish the effectiveness of these compounds in the hind paw edema induced by carrageenin in the rat.
Male rats of the Sprague-Dawley strain (Charles River Laboratories) weighing 100 ± 20 grams were used for this study. Six animals were used for each drug dose. The drug was suspended in 1 percent aqueous solution of gum acacia, and each rat received 10 ml/kg of the appropriate concentration of drug suspension by oral intubation; controls were given a similar volume of the vehicle. One hour later, edema in the right hind paw was induced by the subplantar injection of 0.05 ml. of 1 percent calcium carrageenin dissolved in 0.15N sodium chloride. The volume of the foot was determined immediately and again 3 hours later. The difference was recorded as edema volume. Foot volume was measured by immersion of the foot in water at the level of the lateral malleolus, and determining the volume of water displaced by the foot. The ED50 may be defined as the dose in which edema formation is inhibited by 25 percent or more in 50 percent of the rats when compared to the mean value of the controls.
In general, ED50 refers to the midpoint of the dose-response relation. Low values mean an effect at a small dose, high ones a need for a large dose. For `O=C1c2cc(Cl)ccc2OC2CCCON12` (stereo not drawn) [Example 1, 8-chloro-2,3,4,4a-tetrahydro-10H-1,2-oxazino (3,2-b)(1,3)benzoxazin-10-one], the 50% effective dose (ED50) was 100 ± 27 mg/kg.
In turn, `O=C1c2ccccc2OC2CCCON12` (stereo not drawn) [Example 2, 2,3,4,4a-tetrahydro-10H-1,2-oxazino(3,2-b) (1,3)benzoxazin-10-one] yielded an ED50 of 65 ± 22 mg/kg.
Then `Cc1ccc2c(c1)C(=O)N1OCCCC1O2` (stereo not drawn) [Example 3, 8-methyl-2,3,4,4a-tetrahydro-10H-1,2oxazino (3,2-b)(1,3)benzoxazine-10-one], with > 300 mg/kg.
`CC1CCC2Oc3ccc(Cl)cc3C(=O)N2O1` (stereo not drawn) [Example 4, 8-chloro-2-methyl-2,3,4,4a-tetrahydro-10H-1,2-oxazino(3,2-b)(1,3)benzoxazin-10-one] yielded a 50% effective dose (ED50) of 270 ± 185 mg/kg.
On to `CC1CON2C(=O)c3cc(Cl)ccc3OC2C1` (stereo not drawn) [Example 5, 8-chloro-3-methyl-2,3,4,4a-tetrahydro-10H-1,2-oxazino(3,2-b)(1,3)benzoxazin-10-one], for which the ED50 stood at 160 ± 73 mg/kg.
With `CC1CCON2C(=O)c3cc(Cl)ccc3OC12` (stereo not drawn) [Example 6, 8-chloro-4-methyl-2,3,4,4a-tetrahydro-10H-1,2-oxazino(3,2-b)(1,3)benzoxazin-10-one], the 50% effect level (ED50) was put at a dose of 195 ± 96 mg/kg.
